From patent publication US6747041B1, “Heterocyclic dicarboxylic acid diamide derivatives, agricultural/horticultural insecticides and method of using the same” (Nihon Nohyaku Co., Ltd., priority 1999, dated 2004)

melting point [°C]	Structure (SMILES)
108 to 110	Cc1cc(C(F)(C(F)(F)F)C(F)(F)F)ccc1NC(=O)c1ccc[n+]([O-])c1C(=O)NC(C)C
164 to 166	Cc1cc(C(F)(C(F)(F)F)C(F)(F)F)ccc1NC(=O)c1nn(-c2ccccc2)c(Br)c1C(=O)NC(C)C
